Assay results taken from patent US10045981B2, “Selective kinase inhibitors” (JAKPHARM, LLC, priority 2015, dated 2018).
≈ marks a conversion by molar mass, not a printed value. Where two headings read alike, the source gives them in different places.

What was measured:
JAK1 = JAK1 (Homo sapiens, UniProt P23458); assay: JAK1 IC50; format: biochemical
[1] = Solubility in aqueous buffer; format: physicochemical; details: for solubility: aqueous buffer
CK1g3 = CK1g3 (Homo sapiens, UniProt Q9Y6M4); assay: Exemplary Kinase Panel Analysis; format: biochemical; details: 10 concentrations, 3-fold serial dilutions starting at 5 μM, duplicate
CK1g3, sequence (Q9Y6M4 whole entry): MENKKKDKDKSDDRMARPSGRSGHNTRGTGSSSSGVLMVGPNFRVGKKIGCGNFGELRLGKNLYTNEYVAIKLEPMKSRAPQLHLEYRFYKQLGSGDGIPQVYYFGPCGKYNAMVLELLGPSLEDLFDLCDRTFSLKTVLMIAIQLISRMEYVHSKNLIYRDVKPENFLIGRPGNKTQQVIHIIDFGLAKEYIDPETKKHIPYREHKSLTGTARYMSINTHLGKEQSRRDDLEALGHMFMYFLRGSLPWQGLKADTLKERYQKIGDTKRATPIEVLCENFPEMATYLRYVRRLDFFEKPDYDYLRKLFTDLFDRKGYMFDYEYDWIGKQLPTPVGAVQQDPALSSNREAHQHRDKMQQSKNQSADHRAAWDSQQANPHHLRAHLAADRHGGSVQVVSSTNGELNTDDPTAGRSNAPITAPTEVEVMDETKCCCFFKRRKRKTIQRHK

EGFR (G719C) = EGFR (G719C) (Homo sapiens, UniProt P00533, G719C); assay: Exemplary Kinase Panel Analysis; format: biochemical; details: 10 concentrations, 3-fold serial dilutions starting at 5 μM, duplicate
EGFR (G719C), sequence (P00533 25-1210 G719C): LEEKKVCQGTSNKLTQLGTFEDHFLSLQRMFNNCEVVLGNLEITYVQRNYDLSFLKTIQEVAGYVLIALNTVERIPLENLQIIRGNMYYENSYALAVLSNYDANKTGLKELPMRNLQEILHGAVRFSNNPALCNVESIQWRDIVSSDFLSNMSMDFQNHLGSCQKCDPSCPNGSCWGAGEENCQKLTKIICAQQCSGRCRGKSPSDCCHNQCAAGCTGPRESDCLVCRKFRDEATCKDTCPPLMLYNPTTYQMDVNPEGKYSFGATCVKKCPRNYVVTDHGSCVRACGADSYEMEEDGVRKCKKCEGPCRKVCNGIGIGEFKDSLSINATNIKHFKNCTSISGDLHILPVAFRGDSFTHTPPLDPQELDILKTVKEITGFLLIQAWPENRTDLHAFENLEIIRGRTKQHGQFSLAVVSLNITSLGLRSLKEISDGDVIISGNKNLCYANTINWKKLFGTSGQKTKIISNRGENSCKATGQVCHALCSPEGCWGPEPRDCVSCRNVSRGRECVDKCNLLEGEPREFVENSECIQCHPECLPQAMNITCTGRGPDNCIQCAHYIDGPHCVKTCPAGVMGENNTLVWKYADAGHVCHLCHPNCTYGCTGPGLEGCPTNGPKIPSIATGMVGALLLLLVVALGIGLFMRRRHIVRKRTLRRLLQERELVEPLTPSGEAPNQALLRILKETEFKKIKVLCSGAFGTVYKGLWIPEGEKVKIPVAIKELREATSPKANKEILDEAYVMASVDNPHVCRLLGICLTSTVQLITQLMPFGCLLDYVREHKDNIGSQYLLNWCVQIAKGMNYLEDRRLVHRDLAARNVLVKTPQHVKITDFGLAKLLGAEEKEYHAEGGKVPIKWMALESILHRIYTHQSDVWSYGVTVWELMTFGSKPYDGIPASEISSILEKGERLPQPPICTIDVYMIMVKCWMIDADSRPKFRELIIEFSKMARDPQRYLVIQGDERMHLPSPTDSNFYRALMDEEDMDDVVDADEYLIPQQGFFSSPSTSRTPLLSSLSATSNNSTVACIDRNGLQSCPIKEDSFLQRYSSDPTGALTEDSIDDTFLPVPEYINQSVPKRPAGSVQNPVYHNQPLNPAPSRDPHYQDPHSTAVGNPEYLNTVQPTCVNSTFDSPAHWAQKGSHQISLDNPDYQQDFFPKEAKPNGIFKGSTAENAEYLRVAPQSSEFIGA
Experimental: Kinase Panel: These compounds were tested against 439 kinases. […]. […] The results are presented in Table 2 below, where empty cells indicate no inhibition or compound activity that could not be fit to an IC50 curve.

EGFR (T790M) = EGFR (T790M) (Homo sapiens, UniProt P00533, T790M); assay: Exemplary Kinase Panel Analysis; format: biochemical; details: 10 concentrations, 3-fold serial dilutions starting at 5 μM, duplicate
EGFR (T790M), sequence (P00533 25-1210 T790M): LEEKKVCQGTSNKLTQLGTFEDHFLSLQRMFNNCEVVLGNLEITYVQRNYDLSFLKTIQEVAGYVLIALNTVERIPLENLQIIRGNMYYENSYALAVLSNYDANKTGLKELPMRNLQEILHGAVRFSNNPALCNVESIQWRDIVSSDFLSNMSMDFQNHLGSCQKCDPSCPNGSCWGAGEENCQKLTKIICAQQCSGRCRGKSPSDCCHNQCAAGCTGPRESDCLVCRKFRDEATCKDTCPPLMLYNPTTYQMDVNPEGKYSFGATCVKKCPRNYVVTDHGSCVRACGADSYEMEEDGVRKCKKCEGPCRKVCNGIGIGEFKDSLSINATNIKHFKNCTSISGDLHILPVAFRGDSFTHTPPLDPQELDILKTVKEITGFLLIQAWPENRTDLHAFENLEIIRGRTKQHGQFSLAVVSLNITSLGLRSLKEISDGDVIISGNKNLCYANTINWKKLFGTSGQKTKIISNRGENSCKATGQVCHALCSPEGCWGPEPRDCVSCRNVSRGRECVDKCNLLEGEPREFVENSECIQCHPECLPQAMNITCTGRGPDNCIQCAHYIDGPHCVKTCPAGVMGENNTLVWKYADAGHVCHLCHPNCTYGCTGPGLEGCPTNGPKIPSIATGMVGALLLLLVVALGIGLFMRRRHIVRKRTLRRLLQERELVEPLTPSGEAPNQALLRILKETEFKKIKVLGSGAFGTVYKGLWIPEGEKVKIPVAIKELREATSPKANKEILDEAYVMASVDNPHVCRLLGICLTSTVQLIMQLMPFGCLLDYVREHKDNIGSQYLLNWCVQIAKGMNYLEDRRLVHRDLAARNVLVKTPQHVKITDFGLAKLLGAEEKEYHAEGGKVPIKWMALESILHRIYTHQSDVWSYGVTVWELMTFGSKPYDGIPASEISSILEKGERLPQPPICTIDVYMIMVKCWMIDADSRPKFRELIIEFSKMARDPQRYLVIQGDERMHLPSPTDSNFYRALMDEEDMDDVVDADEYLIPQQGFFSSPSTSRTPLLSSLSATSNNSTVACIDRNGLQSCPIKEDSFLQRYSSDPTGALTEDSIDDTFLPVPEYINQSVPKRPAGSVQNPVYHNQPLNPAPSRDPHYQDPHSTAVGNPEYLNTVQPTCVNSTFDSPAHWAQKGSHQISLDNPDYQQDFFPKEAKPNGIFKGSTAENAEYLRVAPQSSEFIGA

ITK = target: T1, ITK (Homo sapiens, UniProt Q08881); assay: Exemplary Kinase Panel Analysis; format: biochemical; details: 10 concentrations, 3-fold serial dilutions starting at 5 μM, duplicate
T1 sequence (Q08881 1-620): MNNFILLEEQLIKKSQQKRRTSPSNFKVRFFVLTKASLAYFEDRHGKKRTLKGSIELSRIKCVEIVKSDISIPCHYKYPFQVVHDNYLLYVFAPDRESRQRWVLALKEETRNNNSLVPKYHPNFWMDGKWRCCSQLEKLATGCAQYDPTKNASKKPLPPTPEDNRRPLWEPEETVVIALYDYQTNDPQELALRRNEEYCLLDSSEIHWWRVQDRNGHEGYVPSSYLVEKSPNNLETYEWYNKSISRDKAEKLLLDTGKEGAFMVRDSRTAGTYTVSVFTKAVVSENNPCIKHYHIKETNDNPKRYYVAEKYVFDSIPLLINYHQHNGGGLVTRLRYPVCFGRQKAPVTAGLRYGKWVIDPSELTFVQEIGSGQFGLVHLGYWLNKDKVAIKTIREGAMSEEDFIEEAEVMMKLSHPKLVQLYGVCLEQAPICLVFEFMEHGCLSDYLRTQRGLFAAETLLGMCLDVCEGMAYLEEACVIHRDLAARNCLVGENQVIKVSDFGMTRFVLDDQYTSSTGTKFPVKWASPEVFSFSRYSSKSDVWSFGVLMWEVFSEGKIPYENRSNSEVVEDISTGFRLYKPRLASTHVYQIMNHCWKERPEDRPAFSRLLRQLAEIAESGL

TXK = target: T2, TXK (Homo sapiens, UniProt P42681); assay: Exemplary Kinase Panel Analysis; format: biochemical; details: 10 concentrations, 3-fold serial dilutions starting at 5 μM, duplicate
T2 sequence (P42681 1-527): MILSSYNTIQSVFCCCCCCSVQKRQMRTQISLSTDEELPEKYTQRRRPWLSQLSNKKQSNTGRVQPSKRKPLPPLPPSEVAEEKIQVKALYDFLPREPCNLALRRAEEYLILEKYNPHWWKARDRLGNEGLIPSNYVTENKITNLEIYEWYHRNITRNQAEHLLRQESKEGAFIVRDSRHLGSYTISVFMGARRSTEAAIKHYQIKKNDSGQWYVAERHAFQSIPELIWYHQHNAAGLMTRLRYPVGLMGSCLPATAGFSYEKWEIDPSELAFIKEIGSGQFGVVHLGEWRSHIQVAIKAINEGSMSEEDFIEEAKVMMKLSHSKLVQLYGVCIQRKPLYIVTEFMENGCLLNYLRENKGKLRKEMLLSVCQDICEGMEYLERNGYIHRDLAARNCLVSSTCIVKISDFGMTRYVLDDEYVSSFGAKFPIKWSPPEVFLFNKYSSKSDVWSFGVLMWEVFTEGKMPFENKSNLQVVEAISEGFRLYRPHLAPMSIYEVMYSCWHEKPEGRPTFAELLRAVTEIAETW

[2] = Brain penetration classification
[3] = Human Liver Microsomes stability; format: in vitro ADME; details: read-out: Human Liver Microsomes t½
[4] = Rat Liver Microsomes stability; format: in vitro ADME; details: read-out: Rat Liver Microsomes t½
CYP1A2 = target: T3, CYP1A2 (Homo sapiens, UniProt P05177); assay: CYP1A2 inhibition LCMS; format: in vitro ADME
T3 sequence (P05177 1-516): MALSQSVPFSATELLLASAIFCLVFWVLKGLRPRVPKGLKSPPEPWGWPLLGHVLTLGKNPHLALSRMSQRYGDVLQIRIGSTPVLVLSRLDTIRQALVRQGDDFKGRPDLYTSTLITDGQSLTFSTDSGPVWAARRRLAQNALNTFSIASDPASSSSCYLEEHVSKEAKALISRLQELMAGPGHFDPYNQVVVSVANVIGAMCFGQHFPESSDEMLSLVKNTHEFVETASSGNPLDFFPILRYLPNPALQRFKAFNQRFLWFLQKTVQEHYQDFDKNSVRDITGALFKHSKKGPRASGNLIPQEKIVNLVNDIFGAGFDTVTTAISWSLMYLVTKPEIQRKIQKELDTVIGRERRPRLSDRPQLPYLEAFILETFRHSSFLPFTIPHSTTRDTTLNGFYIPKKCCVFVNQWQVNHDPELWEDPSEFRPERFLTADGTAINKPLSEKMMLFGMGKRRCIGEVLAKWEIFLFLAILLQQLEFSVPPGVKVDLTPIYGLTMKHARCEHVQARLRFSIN

CYP2D6 = CYP2D6 (Homo sapiens, UniProt P10635); assay: CYP2D6 inhibition LCMS; format: in vitro ADME
CYP2D6, sequence (P10635 whole entry): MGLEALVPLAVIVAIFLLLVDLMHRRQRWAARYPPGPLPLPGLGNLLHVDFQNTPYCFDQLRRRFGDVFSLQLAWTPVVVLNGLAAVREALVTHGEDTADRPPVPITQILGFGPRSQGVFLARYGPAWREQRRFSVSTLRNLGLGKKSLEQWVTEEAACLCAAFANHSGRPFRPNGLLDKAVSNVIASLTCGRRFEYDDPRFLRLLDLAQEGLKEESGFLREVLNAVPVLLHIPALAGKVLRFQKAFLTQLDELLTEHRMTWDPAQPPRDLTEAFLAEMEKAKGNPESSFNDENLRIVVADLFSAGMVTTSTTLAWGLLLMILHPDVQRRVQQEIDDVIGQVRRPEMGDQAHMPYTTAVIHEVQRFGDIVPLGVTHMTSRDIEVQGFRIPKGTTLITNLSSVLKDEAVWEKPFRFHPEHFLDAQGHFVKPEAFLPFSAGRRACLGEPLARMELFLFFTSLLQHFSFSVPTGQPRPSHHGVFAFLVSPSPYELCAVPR

CYP3A4 = CYP3A4 (Homo sapiens, UniProt P08684); assay: CYP3A4 inhibition midazolam LCMS; format: in vitro ADME
CYP3A4, sequence (P08684 whole entry): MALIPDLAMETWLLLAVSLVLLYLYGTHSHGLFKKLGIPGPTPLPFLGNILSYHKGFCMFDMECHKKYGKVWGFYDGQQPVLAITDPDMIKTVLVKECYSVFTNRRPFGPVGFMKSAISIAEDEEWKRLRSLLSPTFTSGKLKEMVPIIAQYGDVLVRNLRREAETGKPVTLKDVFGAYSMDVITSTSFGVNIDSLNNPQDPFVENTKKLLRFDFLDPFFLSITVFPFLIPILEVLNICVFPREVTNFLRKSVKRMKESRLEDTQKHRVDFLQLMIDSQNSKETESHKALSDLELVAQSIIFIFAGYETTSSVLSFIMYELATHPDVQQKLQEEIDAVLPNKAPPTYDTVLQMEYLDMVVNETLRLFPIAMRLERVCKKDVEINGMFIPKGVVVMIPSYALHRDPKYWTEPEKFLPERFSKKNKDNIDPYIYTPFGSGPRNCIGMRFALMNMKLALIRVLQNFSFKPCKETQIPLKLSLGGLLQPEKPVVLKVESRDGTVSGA

[5] = Mouse Plasma protein binding; format: in vitro ADME
hERG = target: T4, hERG (Homo sapiens, UniProt Q12809); assay: hERG K+ channel current in HEK293 cells; format: cell-based
T4 construct: expressed in transfected cells; host or cells: HEK293

[6] = Original analysis, read-out: JAK1 IC50 (uM) Original
[7] = re-test, read-out: JAK1 IC50 (uM) re-test
[8] = pH 7.4, aqueous buffer, pH 7.4, Original, read-out: Solubility pH 7.4 (uM) Original
[9] = pH 7.4, aqueous buffer, pH 7.4, Re-test, read-out: Solubility pH 7.4 (uM) Re-test
[10] = pH 7.4, aqueous buffer, pH 7.4, Table 3, first session (before /), read-out: Solubility, pH 7.4
[11] = pH 7.4, aqueous buffer, pH 7.4, Table 3, second session (after /), read-out: Solubility, pH 7.4

JAK1, sequence (P23458 whole entry, species assumed): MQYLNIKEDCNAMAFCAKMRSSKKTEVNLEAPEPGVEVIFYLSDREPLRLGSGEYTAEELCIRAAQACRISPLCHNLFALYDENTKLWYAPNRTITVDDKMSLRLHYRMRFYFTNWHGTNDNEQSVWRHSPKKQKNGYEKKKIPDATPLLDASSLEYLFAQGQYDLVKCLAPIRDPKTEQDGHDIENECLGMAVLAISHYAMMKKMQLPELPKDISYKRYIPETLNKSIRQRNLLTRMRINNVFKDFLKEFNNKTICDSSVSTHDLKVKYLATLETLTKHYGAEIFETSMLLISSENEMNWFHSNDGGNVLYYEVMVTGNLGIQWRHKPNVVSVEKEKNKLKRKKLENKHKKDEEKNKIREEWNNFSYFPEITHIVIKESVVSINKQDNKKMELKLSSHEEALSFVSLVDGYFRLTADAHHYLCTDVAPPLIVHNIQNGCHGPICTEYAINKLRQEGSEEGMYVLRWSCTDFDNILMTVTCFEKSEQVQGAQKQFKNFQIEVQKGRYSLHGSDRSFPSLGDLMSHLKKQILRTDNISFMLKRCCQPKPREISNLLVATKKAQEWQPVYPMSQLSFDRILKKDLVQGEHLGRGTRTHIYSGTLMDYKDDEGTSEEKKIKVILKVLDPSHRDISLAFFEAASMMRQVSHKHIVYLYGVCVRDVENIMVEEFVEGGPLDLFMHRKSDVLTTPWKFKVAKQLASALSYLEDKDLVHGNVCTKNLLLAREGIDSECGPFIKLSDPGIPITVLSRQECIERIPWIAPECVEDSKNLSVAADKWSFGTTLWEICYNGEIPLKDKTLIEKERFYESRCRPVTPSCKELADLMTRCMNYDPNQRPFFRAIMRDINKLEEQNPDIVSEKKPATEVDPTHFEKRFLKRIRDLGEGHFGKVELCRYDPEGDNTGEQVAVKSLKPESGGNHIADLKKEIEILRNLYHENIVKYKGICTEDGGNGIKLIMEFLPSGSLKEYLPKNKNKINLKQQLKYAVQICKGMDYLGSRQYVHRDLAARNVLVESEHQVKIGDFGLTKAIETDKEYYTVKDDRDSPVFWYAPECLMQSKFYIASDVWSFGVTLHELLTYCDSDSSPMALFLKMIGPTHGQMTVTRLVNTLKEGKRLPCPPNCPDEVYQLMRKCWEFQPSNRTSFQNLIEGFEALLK

IC50 (JAK1; [6]) [µM]	IC50 (JAK1; [7]) [µM]	solubility [1, 8] [µM]	solubility [1, 9] [µM]	solubility [1, 10] [µM]	solubility [1, 11] [µM]	IC50 (CK1g3) [µM]	IC50 (EGFR (T790M)) [µM]	IC50 (ITK) [µM]	IC50 (TXK) [µM]	Brain penetration classification [2]	half-life ([3]; first session (before /)) [h]	half-life ([3]; second session (after /)) [h]	half-life ([4]; first session (before /)) [h]	half-life ([4]; second session (after /)) [h]	IC50 (CYP1A2; first session (before /)) [µM]	IC50 (CYP1A2; second session (after /)) [µM]	IC50 (CYP2D6; first session (before /)) [µM]	IC50 (CYP2D6; second session (after /)) [µM]	IC50 (CYP3A4; first session (before /)) [µM]	SMILES	further results
≥ 100	≥ 100	85 (≈ 34.1 µg/mL)	34 (≈ 13.6 µg/mL)	85 (≈ 34.1 µg/mL)	34 (≈ 13.6 µg/mL)	0.358	0.688	0.0721	0.0316	Low	1.07	1	0.833	0.6	34	> 100	> 100	> 100	> 100	C=CC(=O)Nc1cc(CN2CCN(C)C(=O)C2)cc(-c2cnc3ccccc3n2)c1 [Compound 1a]	IC50 (EGFR (G719C)): 0.0661 µM; IC50 (CYP3A4; second session (after /)): > 100 µM; fraction unbound [5]: 0.034; IC50 (hERG): > 10 µM
≥ 100	≥ 100	9 (≈ 3.13 µg/mL)	1 (≈ 0.347 µg/mL)	9 (≈ 3.13 µg/mL)	1 (≈ 0.347 µg/mL)	0.0244	3.31	0.0349	0.0149	Moderate	> 16.7	0.0917	0.0333	0.0367	90	5.1	> 100	> 100	> 100	C=CC(=O)Nc1cc(CC(=O)OC)cc(-c2cnc3ccccc3n2)c1 [Compound 2]	IC50 (EGFR (G719C)): 0.423 µM; IC50 (CYP3A4; second session (after /)): > 100 µM; IC50 (hERG): > 10 µM
≥ 100	≥ 100	34 (≈ 12.5 µg/mL)	3 (≈ 1.11 µg/mL)	34 (≈ 12.5 µg/mL)	3 (≈ 1.11 µg/mL)	0.118	2.24	0.278	0.144	Low	0.967	1	0.633	1	> 100	> 100	> 100	> 100	> 100	C=CC(=O)Nc1cc(NS(C)(=O)=O)cc(-c2cnc3ccccc3n2)c1 [Compound 3]	IC50 (CYP3A4; second session (after /)): > 100 µM; fraction unbound [5]: 0.147; IC50 (hERG): > 1 µM
≥ 100	≥ 100	88 (≈ 34.1 µg/mL)	88 (≈ 34.1 µg/mL)	88 (≈ 34.1 µg/mL)	88 (≈ 34.1 µg/mL)	0.757	3.54	0.068	0.0161	Low	1.25	> 1	1.05	1.28	> 100	> 100	> 100	> 100	> 100	C=CC(=O)Nc1cc(CN2CCNC(=O)C2)cc(-c2cnc3ccccc3n2)c1 [Compound 1b, N-[3-[(3-oxopiperazin-1-yl)methyl]-5-quinoxalin-2-yl-phenyl] prop-2-enamide]	solubility ([1]; pH 5, aqueous buffer, pH 5.0, read-out: Solubility In Aqueous Buffer pH 5.0): 93 µM (≈ 36 µg/mL); solubility ([1]; pH 6.5, aqueous buffer, pH 6.5, read-out: Solubility In Aqueous Buffer pH 6.5): 108 µM (≈ 41.8 µg/mL); solubility at pH 7.4 (in words) ([1]; pH 7.4): highly and consistently soluble; IC50 (EGFR (G719C)): 0.193 µM; IC50 (CYP3A4; second session (after /)): > 100 µM; fraction unbound [5]: 0.059; IC50 (hERG): > 10 µM
